The values that follow come from patent US4200650A, “2-Amino-cyclopent-1-ene-1-thiocarboxylic acid-disulfides to treat noradrenergic malfunctions” (Richter Gedeon Vegyeszeti Gyar Rt., priority 1976, dated 1980).

Assay [1] relates to dopamine-β-hydroxylase. Nature of the assay: Determination of the noradrenaline content of spleen. Format: in vivo, male Wistar rats. The note with it: i.p. Here is the method:
(§1) The dopamine-β-hydroxylase inhibiting effects of the new compounds according to the invention were examined by the following tests:
(§2) The tests were performed on male Wistar rats weighing 150 to 200 g. The dopamine-β-hydroxylase inhibiting effects of the compounds were evaluated by determining the change of noradrenaline, dopamine and adrenaline levels of the cerebrum, heart, spleen and adrenal gland. The serotonine and 5-hydroxy-indolylacetic acid levels of the cerebrum were also determined. The measurements were performed as follows:
(§3) The animals were decapitated, the cerebrum, heart, spleen and adrenal gland were removed quickly, and the organs were frozen by placing them onto a metal sheet cooled with dry ice. The frozen organs were stored for maximum one night at -20° C.
(§4) Determination of the noradrenaline content of heart and spleen
(§5) The organs were weighed in frozen state and then homogenized in 5.0 ml of 0.4 n perchloric acid containing 0.05% of EDTA-Naa and 0.1% of Na2 S2 O5. The homogenized mixtures were centrifuged as described above for the treatment of adrenal gland, the supernatants were decanted, and the pH was adjusted to 8.0±0.1 with a 0.1 molar tris buffer containing 20 g/l of NaOH and 25 g/l of EDTA-Na2. 100 mg of prepared Al2 O3 (Anton et al.: J. Pharm. Ther. 138, 360/1962/) were added to the samples, and the mixtures were shaken mechanically for 20 minutes. Thereafter Al2 O3 was washed with 2×10 ml of distilled water, and noradrenaline was eluted with 1.0 ml of 0.05 n perchloric acid. 0.5 ml samples of the eluate were applied for the determination of noradrenaline. Noradrenaline was determined according to the method of Shellenberger et al. (Anal. Biochem. 39, 356/1971/), with the following modifications of the basic procedure: 0.5 ml of 0.1 molar Na-K-phosphate buffer, containing 9 g/l of EDTA-Na2, were added to 0.5 ml of the eluate, and the catecholamines (noradrenaline in the examination of heart and spleen and noradrenaline and dopamine in the examination of the cerebrum) were oxidized with 0.1 ml of a 0.1 n iodine solution in 5% potassium iodide. After exactly 2 minutes oxidation was stopped by adding 0.25 ml of a 2.5% sodium sulfite solution in 4.4 n aqueous sodium hydroxide to the mixture. 2 minutes after the introduction of the alkaline sulfite solution 0.2 ml of concentrated acetic acid were added to the samples, upon which the pH decreased to 4.4 to 4.5 Thereafter the samples were placed for 5 minutes into a drying oven heated to 100° C., and then the samples were cooled with ice water. The fluorescency of noradrenaline was measured with an OPTON spectrophotometer at wavelengths of 380 nm (excitation) and 490 nm (emission).
(§6) In the tests disulfiram, 2,2-dipyridyl, bis(1-methyl-4-homopiperazinyl-thriocaronyl)-disulfide, sodium diethyldithiocarbamate and N-phenyl-N'-(2-thiazolyl)-thiourea were applied as reference substances. The values indicated in Table 1 are the percentages in relation to the amine levels of the controls measured in the same tests (± standard error). The statistical calculations were performed on a TPA/i type computer, using Student's t test.

In assay [2] the test system is serotonine and 5-hydroxy-indolylacetic acid levels of the cerebrum. Put plainly: Determination of serotonine and 5-hydroxy-indolylacetic acid levels of brain. Format: in vivo, male Wistar rats. Here is the method: as §2, §3
(§7) Determination of the noradrenaline, dopamine, serotonine and 5-hydroxy-indolylacetic acid contents of brain
(§8) In a further test series the serotonine and 5-hydroxy-indolylacetic acid contents were also determined, beside the determination of the noradrenaline and dopamine content, from the same sample. In this instance the brains were homogenized in 10 ml of 75% ethanol, 0.2 ml of EDTA-Na2 and 5% of ascorbic acid were added to the homogenized mixtures, and the homogenized mixtures were maintained at -20° C. overnight. The mixtures were centrifuged as described above, and 5.0 ml samples of the supernatant were removed. The samples were diluted with equal volumes of distilled water, and poured onto ion exchange columns of 0.5×1.5 cm dimensions, filled with buffered Amberlite CG-30 (200 to 400 mesh). The columns were washed with 5 ml of distilled water followed by 1.0 ml of 0.2 n hydrochloric acid, and the first effluent and the aqueous wash were collected for the determination of 5-hydroxy-indolylacetic acid. Elution was continued with further 1.2 ml of 0.2 n hydrochloric acid in order to remove noradrenaline, dopamine and serotonine. Samples of 0.3 ml were used for the determinations.
(§9) Noradrenaline and dopamine were determined by the method of Shellenberger, modified as described above, whereas serotonine was determined by the method of Curzon et al. (Brit. J. Pharmacol. 39, 653/1970/). The basic method was modified as follows: A 0.5% solution of ortho-phthal(di)aldehyde in absolute ethanol was diluted with 10 n hydrochloric acid to 50-fold of its original volume, and 0.6 ml of the resulting 0.01% ortho-phthal(di)aldehyde solution were added immediately to 0.5 ml of the serotonine-containing sample. The sample was placed into a hot water bath for 10 minutes, thereafter cooled with tap water, and the fluorescency was recorded at wavelengths of 360 nm (excitation) and 490 nm (emission).
5-Hydroxy-indolylacetic acid was determined from the mixture of the first effluent and the aqueous wash. 10 ml of distilled water and 0.2 ml of concentrated hydrochloric acid were added to the mixture, and the sample was poured onto a 0.8×4.0 cm column filled with Sephadex G-10. The column was washed with 15 ml of 0.1 n hydrochloric acid followed by 1.8 to 2.0 ml of 0.02 n aqueous ammonia, and then 5-hydroxyindolylacetic acid was eluted with further 2.0 ml of aqueous ammonia. 0.5 ml samples were used in the measurements, and the determination was performed according to the method of Korf et al. (Biochem. Pharmacol. 20, 659/1971/).
as §6

In assay [3] the test system is dopamine-β-hydroxylase. Put plainly: Determination of noradrenaline and dopamine levels of brain (dopamine-β-hydroxylase inhibiting effect). It is filed as in vivo, male Wistar rats. The note with it: i.p. Here is the method:
as §1, §2, §3, §7
The brains were homogenized in 10 parts by volume of 0.4 n perchloric acid. The homogenized mixture was stored at -20° C. overnight, thereafter it was thawed and centrifuged as described above. A sample of the homogenized mixture corresponding to 0.5 g of brain was removed, the pH of the sample was adjusted to 8.0±0.1 with 0.1 molar tris-buffer of the above composition, and the sample was processed as described above for the determination of the noradrenaline content of heart and spleen, with the difference that 1.5 ml of 0.05 n perchloric acid were applied as eluting agent. 0.5 ml of the eluate were applied to determine the noradrenaline and dopamine contents. The measurement was performed as described above, with the difference that samples of 0.5 ml were applied for the recording of the fluorescency of noradrenaline. The residua was placed for 50 minutes into a drying oven heated to 100° C., thereafter the sample was cooled with ice water, and the fluorescency of dopamine was recorded at wavelengths of 325 nm (excitation) and 380 nm (emission).
as §8, §9
In the tests disulfiram, 2,2-dipyridyl, bis(1-methyl-4-homopiperazinyl-thriocaronyl)-disulfide, sodium diethyldithiocarbamate and N-phenyl-N'-(2-thiazolyl)-thiourea were applied as reference substances. […]

Assay [4] has as its system dopamine-β-hydroxylase. Put plainly: Determination of the adrenaline content of adrenal gland. The note with it: i.p. Format: in vivo, male Wistar rats. Here is the method:
as §1, §2, §3
Determination of the adrenaline content of adrenal gland
The adrenal glands were freed from fat and homogenized in 3.0 ml of ice-cold 0.4 n perchloric acid. The homogenized mixtures were centrifuged for 10 minutes at 0° C. with a speed of 3200 r.p.m. using a Janetzky K-70 type centrifuge. 0.05 ml samples were taken from the supernatant, and the adrenaline level was determined directly by the method of Laverty et al. (Anal. Biochem. 22, 269/1968/).
as §6

Assay [5] has as its system dopamine-β-hydroxylase. Put plainly: Determination of the noradrenaline content of heart. It is filed as in vivo, male Wistar rats. The note with it: i.p. Here is the method: as §1, §2, §3, §4, §5, §6
Assay [6] relates to dopamine-β-hydroxylase. The following applies: literature, cited from earlier work.
[7] abbreviates: 200 mg/kg, 4 hours, ± standard error.
The mark [8] stands for this setting: i.p., 200 mg/kg, 4 hours, ± standard error.
The mark [9] stands for this setting: 50 mg/kg, 4 hours, ± standard error.
Setting [10] is: 200 mg/kg, 8 hours, ± standard error.
[11] abbreviates: 100 mg/kg, 4 hours, ± standard error.

For the compound `S=C(Nc1ccccc1)Nc1nccs1` [Compound U-14624, N-phenyl-N'-(2-thiazolyl)-thiourea, reference compound], the “Spleen NA (noradrenaline) level, percentages in relation to the controls” value with dopamine-β-hydroxylase [1] (setting [7]) was 111%. In assay [2] (setting [8]), the “Brain 5-HIAA (5-hydroxy-indolylacetic acid) level, percentages in relation to the controls” value is given as 175% and the “Brain SE (serotonine) level, percentages in relation to the controls” value (“Brain SE (serotonine) level, percentages” for short) was 137%. In addition, in the assay on dopamine-β-hydroxylase [3] (setting [7]), the “Brain DA (dopamine) level, percentages in relation to the controls” value (“Brain DA (dopamine) level, percentages” for short) was determined as 121% and the “Brain NA (noradrenaline) level, percentages in relation to the controls” value worked out at 31.6%. Besides, the “Adrenal gland AD (adrenaline) level, percentages in relation to the controls” value in the assay on dopamine-β-hydroxylase [4] (setting [7]) is listed as 72%. Moreover, the “Heart NA (noradrenaline) level, percentages in relation to the controls” value in the assay on dopamine-β-hydroxylase [5] (setting [7]) is 106%.
Turning to `c1ccc(-c2ccccn2)nc1` [2,2-D, 2,2-dipyridyl, reference compound], the “Spleen NA (noradrenaline) level, percentages in relation to the controls” value in the assay on dopamine-β-hydroxylase [1] (37.5 mg/kg, 4 hours) is listed as 100%. The “dopamine-β-hydroxylase inhibition under in vitro conditions, in words” value in the assay on dopamine-β-hydroxylase [6] (in vitro) was “effective under in vitro conditions”. The “Brain SE (serotonine) level, percentages” value in assay [2] (i.p., 75 mg/kg, 4 hours) was 100%. The “Brain DA (dopamine) level, percentages” value was 116% in the assay with dopamine-β-hydroxylase [3] (37.5 mg/kg, 4 hours) and 95% in the assay on dopamine-β-hydroxylase [3] (75 mg/kg, 4 hours). Besides, the “Brain NA (noradrenaline) level, percentages in relation to the controls” value came out at 79.5% in the assay on dopamine-β-hydroxylase [3] (37.5 mg/kg, 4 hours) and 41.2% with dopamine-β-hydroxylase [3] (75 mg/kg, 4 hours). The “Adrenal gland AD (adrenaline) level, percentages in relation to the controls” value in the assay with dopamine-β-hydroxylase [4] (37.5 mg/kg, 4 hours) is reported as 80%; in the assay on dopamine-β-hydroxylase [4] (75 mg/kg, 4 hours), 63%. In addition, the “Heart NA (noradrenaline) level, percentages in relation to the controls” value turned out to be 104% in the assay on dopamine-β-hydroxylase [5] (37.5 mg/kg, 4 hours) and 58% with dopamine-β-hydroxylase [5] (75 mg/kg, 4 hours).
On to `CN1CCCN(C(=S)SSC(=S)N2CCCN(C)CC2)CC1` [FLA-63, bis(1-methyl-4-homopiperazinyl)-thiocarbonyl-disulfide, reference compound], for which the “Spleen NA (noradrenaline) level, percentages in relation to the controls” value in the assay with dopamine-β-hydroxylase [1] (50 mg/kg, 4 hours) came out at 58%. Besides, the “dopamine-β-hydroxylase inhibition under in vivo conditions, in words” value with dopamine-β-hydroxylase [6] (in vivo) is listed as “one of the most potent dopamine-β-hydroxylase inhibitors under in vivo conditions”. For the same compound, in the assay on dopamine-β-hydroxylase [3] (setting [9]), the “Brain DA (dopamine) level, percentages” value worked out at 118% and the “Brain NA (noradrenaline) level, percentages in relation to the controls” value worked out at 24.6%. In addition, the “Adrenal gland AD (adrenaline) level, percentages in relation to the controls” value in the assay on dopamine-β-hydroxylase [4] (setting [9]) was 43%. Further, the “Heart NA (noradrenaline) level, percentages in relation to the controls” value with dopamine-β-hydroxylase [5] (setting [9]) was found to be 96%.
On to `CCN(CC)C(=S)SSC(=S)N(CC)CC` [DS, bis(diethylthiocarbamoyl)-disulfide, reference compound], for which the “dopamine-β-hydroxylase inhibiting effects, in words” value with dopamine-β-hydroxylase [6] is reported as “strong dopamine-β-hydroxylase inhibiting effects”. Further, the “Brain SE (serotonine) level, percentages” value in assay [2] (setting [8]) stood at 122%; in assay [2] (i.p., 400 mg/kg, 4 hours), 117%. In addition, the “Brain DA (dopamine) level, percentages” value in the assay on dopamine-β-hydroxylase [3] (setting [7]) worked out at 111%; with dopamine-β-hydroxylase [3] (400 mg/kg, 4 hours), 112%. Further, the “Brain NA (noradrenaline) level, percentages in relation to the controls” value in the assay with dopamine-β-hydroxylase [3] (setting [7]) is 22.5%; in the assay on dopamine-β-hydroxylase [3] (400 mg/kg, 4 hours), 24.1%. In addition, the “Adrenal gland AD (adrenaline) level, percentages in relation to the controls” value is on record as 52% in the assay on dopamine-β-hydroxylase [4] (setting [7]) and 66% in the assay with dopamine-β-hydroxylase [4] (400 mg/kg, 4 hours). Also, the “Heart NA (noradrenaline) level, percentages in relation to the controls” value came out at 98% in the assay on dopamine-β-hydroxylase [5] (setting [7]) and 102% in the assay with dopamine-β-hydroxylase [5] (400 mg/kg, 4 hours).
Turning to `CCCCNC1=C(C(=S)SSC(=S)C2=C(NCCCC)CCC2)CCC1` [Compound M-2, 2-(N-butyl)-amino-cyclopent-1-ene-thiocarboxylic aciddisulfide], the “Spleen NA (noradrenaline) level, percentages in relation to the controls” value came to 114.5±28.2% with dopamine-β-hydroxylase [1] (setting [7]) and 96.4±23.1% in the assay with dopamine-β-hydroxylase [1] (setting [10]). Further, the response vs control in vivo at 200 mg/kg in assay [2] (Rattus norvegicus, ip, 200 mg/kg, 8 hours, ± standard error, read-out: Brain 5-HIAA (5-hydroxy-indolylacetic acid) level, percentages in relation to the controls) was determined as 126 ± 7.1%. Further, the “Brain DA (dopamine) level, percentages” value with dopamine-β-hydroxylase [3] (setting [11]) is on record as 118.3±5.7%; in the assay on dopamine-β-hydroxylase [3] (setting [7]) it was 94.2±7.5%; in the assay with dopamine-β-hydroxylase [3] (setting [10]), 91.0±12.7%. Moreover, the “Brain NA (noradrenaline) level, percentages in relation to the controls” value stood at 80.1±4.3% with dopamine-β-hydroxylase [3] (setting [11]), 70.9±5.2% in the assay with dopamine-β-hydroxylase [3] (setting [7]) and 81.6±7.3% in the assay with dopamine-β-hydroxylase [3] (setting [10]). Moreover, the “Adrenal gland AD (adrenaline) level, percentages in relation to the controls” value was found to be 81.0±8.5% in the assay on dopamine-β-hydroxylase [4] (setting [11]), 91.7±4.3% with dopamine-β-hydroxylase [4] (setting [7]) and 87.7±4.2% in the assay on dopamine-β-hydroxylase [4] (setting [10]). The “Heart NA (noradrenaline) level, percentages in relation to the controls” value in the assay on dopamine-β-hydroxylase [5] (setting [11]) amounted to 91.5±5.2%; in the assay with dopamine-β-hydroxylase [5] (setting [7]) it was 108.5±9.4%; in the assay with dopamine-β-hydroxylase [5] (setting [10]), 91.7±4.6%.
